Source: patent publication US20240383856A1 (Zedira GmbH, priority 2021, published 2024)

Tests used:
[1] = biological target: T1, recombinant human transglutaminase 2 (Homo sapiens, UniProt P21980); assay: Transglutaminase assay (DCC-assay): incorporation of dansylcadaverine into dimethylcasein; assay type: biochemical; conditions: recombinant human TG2 10 nM; dansylcadaverine incorporation into dimethylcasein; read-out: IC50 TG2
T1 construct: purchased Zedira T022
T1 sequence (P21980 1-687): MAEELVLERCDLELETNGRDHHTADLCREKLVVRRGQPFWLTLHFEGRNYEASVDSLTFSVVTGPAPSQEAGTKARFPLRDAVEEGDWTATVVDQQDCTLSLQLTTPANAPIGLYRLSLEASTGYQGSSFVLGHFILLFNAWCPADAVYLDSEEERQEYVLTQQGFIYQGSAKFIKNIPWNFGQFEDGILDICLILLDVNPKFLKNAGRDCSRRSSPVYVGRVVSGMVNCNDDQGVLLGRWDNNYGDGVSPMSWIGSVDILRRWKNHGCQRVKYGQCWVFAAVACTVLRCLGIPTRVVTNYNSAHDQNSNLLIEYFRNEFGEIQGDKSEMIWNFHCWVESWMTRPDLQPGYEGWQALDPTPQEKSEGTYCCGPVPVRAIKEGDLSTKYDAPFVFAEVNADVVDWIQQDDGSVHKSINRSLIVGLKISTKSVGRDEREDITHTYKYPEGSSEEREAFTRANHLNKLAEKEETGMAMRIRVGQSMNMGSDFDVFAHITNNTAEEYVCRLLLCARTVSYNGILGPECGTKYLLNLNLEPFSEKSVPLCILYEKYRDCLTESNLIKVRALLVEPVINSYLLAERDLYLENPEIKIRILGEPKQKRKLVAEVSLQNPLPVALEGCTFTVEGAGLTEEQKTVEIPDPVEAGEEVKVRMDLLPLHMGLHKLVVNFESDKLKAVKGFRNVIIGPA
Procedure, shortened: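 Recombinant human TG2 (10 nM final) incorporates dansylcadaverine into N,N-dimethylcasein. Reaction mix: 50 mM Tris-HCl, 10 mM CaCl2, 10 mM glutathione, 2.5% glycerol, 16.7 µM dansylcadaverine, 4 µM dimethylcasein, 200 mM NaCl, pH 8.0. Fluorescence (ex 330/em 500 nm) was followed 30 min at 37 °C; the 20–30 min slope, expressed as % of 2% DMSO control, gave IC50.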

[2] = Caco-2 permeability assay (CacoReady kit); assay type: in vitro ADME; conditions: human, Caco-2, Caco-2 barrier, CacoReady kit; above 1×10^−6 cm/s classified as permeable
Procedure, shortened: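 Papp values come from Caco-2 barrier studies intended to predict oral bioavailability; the manufacturer's procedure for the ready-made kit was followed.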

[3] = logD by shake flask method (octanol / PBS pH 7.4, HPLC); assay type: physicochemical; conditions: octanol / PBS pH 7.4, shake flask
Procedure, shortened: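 Shake-flask partition of compound between octanol and phosphate-buffered saline at pH 7.4, with each phase quantified by HPLC to give LogD.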

IC50 [1] [nM] | Papp [2] [×10⁻⁶ cm/s] | logD [3] | Compound
< 40 | < 1 | < 1 | CNC(=O)C(=O)CC[C@H](NC(=O)[C@@H]1CCCN1C(C)=O)C(=O)Nc1cccn(CC(=O)NC2C3CC4CC(C3)CC2C4)c1=O (stereo partly drawn) [II-50, (S)-2-((S)-1-acetylpyrrolidine-2-carboxamido)-N1-(1-(2-(2-adamantylamino)-2-oxoethyl)-2-oxo-1,2-dihydropyridin-3-yl)-N6-methyl-5-oxohexanediamide]
40 to 400 | < 1 | 1 to 3 | CNC(=O)C(=O)CC[C@H](NC(=O)[C@@H]1CCCN1C)C(=O)Nc1cccn(CC(=O)NC2C3CC4CC(C3)CC2C4)c1=O (stereo partly drawn) [II-54, (S)-N1-(1-(2-(2-adamantylamino)-2-oxoethyl)-2-oxo-1,2-dihydropyridin-3-yl)-N6-methyl-2-((S)-1-methylpyrrolidine-2-carboxamido)-5-oxohexanediamide]
40 to 400 | < 1 | < 1 | CNC(=O)C(=O)CC[C@H](NC(=O)[C@H]1CCNC1)C(=O)Nc1cccn(CC(=O)NC2C3CC4CC(C3)CC2C4)c1=O (stereo partly drawn) [II-55, (S)-N1-(1-(2-(2-adamantylamino)-2-oxoethyl)-2-oxo-1,2-dihydropyridin-3-yl)-N6-methyl-5-oxo-2-((S)-pyrrolidine-3-carboxamido)hexanediamide]
40 to 400 | < 1 | 1 to 3 | CNC(=O)C(=O)CC[C@H](NC(=O)[C@@H]1C[C@H](Br)CN1)C(=O)Nc1cccn(CC(=O)NC2C3CC4CC(C3)CC2C4)c1=O (stereo partly drawn) [II-56, (S)-2-((2S,4S)-4-bromopyrrolidine-2-carboxamido)-N1-(1-(2-(2-adamantylamino)-2-oxoethyl)-2-oxo-1,2-dihydropyridin-3-yl)-N6-methyl-5-oxohexanediamide]
40 to 400 | < 1 | 1 to 3 | CNC(=O)C(=O)CC[C@H](NC(=O)[C@@H]1CCCCN1)C(=O)Nc1cccn(CC(=O)NC2C3CC4CC(C3)CC2C4)c1=O (stereo partly drawn) [II-58, (S)-N1-(1-(2-(2-adamantylamino)-2-oxoethyl)-2-oxo-1,2-dihydropyridin-3-yl)-N6-methyl-5-oxo-2-((S)-piperidine-2-carboxamido)hexanediamide]
40 to 400 | < 1 | 1 to 3 | CNC(=O)C(=O)CC[C@H](NC(=O)[C@@H]1CCCNC1)C(=O)Nc1cccn(CC(=O)NC2C3CC4CC(C3)CC2C4)c1=O (stereo partly drawn) [II-59, (S)-N1-(1-(2-(2-adamantylamino)-2-oxoethyl)-2-oxo-1,2-dihydropyridin-3-yl)-N6-methyl-5-oxo-2-((R)-piperidine-3-carboxamido)hexanediamide]
40 to 400 | < 1 | < 1 | CNC(=O)C(=O)CC[C@H](NC(=O)[C@H]1COCCN1)C(=O)Nc1cccn(CC(=O)NC2C3CC4CC(C3)CC2C4)c1=O (stereo partly drawn) [II-60, (S)-N1-(1-(2-(2-adamantylamino)-2-oxoethyl)-2-oxo-1,2-dihydropyridin-3-yl)-N6-methyl-2-((R)-morpholine-3-carboxamido)-5-oxohexanediamide]

The next lines start with the compound.

Compound | IC50 [1] [nM] | Papp [2] [×10⁻⁶ cm/s] | logD [3]
CNC(=O)C(=O)CC[C@H](NC(=O)c1scc(C)c1Cl)C(=O)Nc1cccn(CC(=O)NC2C3CC4CC(C3)CC2C4)c1=O (stereo partly drawn) [II-43, (S)-2-(3-chloro-4-methylthiophene-2-carboxamido)-N1-(1-(2-(2-adamantylamino)-2-oxoethyl)-2-oxo-1,2-dihydropyridin-3-yl)-N6-methyl-5-oxohexanediamide] | 400 to 2500 | 1 to 10 | 1 to 3
CNC(=O)C(=O)CC[C@H](NC(=O)c1cc(Br)c(Cl)s1)C(=O)Nc1cccn(CC(=O)NC2C3CC4CC(C3)CC2C4)c1=O (stereo partly drawn) [II-44, (S)-2-(4-bromo-5-chlorothiophene-2-carboxamido)-N1-(1-(2-(2-adamantylamino)-2-oxoethyl)-2-oxo-1,2-dihydropyridin-3-yl)-N6-methyl-5-oxohexanediamide] | < 40 | 1 to 10 | 3 to 5
CNC(=O)C(=O)CC[C@H](NC(=O)c1cc(Br)c(Br)s1)C(=O)Nc1cccn(CC(=O)NC2C3CC4CC(C3)CC2C4)c1=O (stereo partly drawn) [II-45, (S)-2-(4,5-dibromothiophene-2-carboxamido)-N1-(1-(2-(2-adamantylamino)-2-oxoethyl)-2-oxo-1,2-dihydropyridin-3-yl)-N6-methyl-5-oxohexanediamide] | < 40 | 1 to 10 | 3 to 5
CNC(=O)C(=O)CC[C@H](NC(=O)c1sc(Br)c(Br)c1OC)C(=O)Nc1cccn(CC(=O)NC2C3CC4CC(C3)CC2C4)c1=O (stereo partly drawn) [II-46, (S)-2-(4,5-dibromo-3-methoxythiophene-2-carboxamido)-N1-(1-(2-(2-adamantylamino)-2-oxoethyl)-2-oxo-1,2-dihydropyridin-3-yl)-N6-methyl-5-oxohexanediamide] | 40 to 400 | < 1 | 3 to 5
CNC(=O)C(=O)CC[C@H](NC(=O)c1cc(Br)co1)C(=O)Nc1cccn(CC(=O)NC2C3CC4CC(C3)CC2C4)c1=O (stereo partly drawn) [II-47, (S)-2-(4-bromofuran-2-carboxamido)-N1-(1-(2-(2-adamantylamino)-2-oxoethyl)-2-oxo-1,2-dihydropyridin-3-yl)-N6-methyl-5-oxohexanediamide] | < 40 | 1 to 10 | 1 to 3
CNC(=O)C(=O)CC[C@H](NC(=O)c1cc(Br)c(Br)o1)C(=O)Nc1cccn(CC(=O)NC2C3CC4CC(C3)CC2C4)c1=O (stereo partly drawn) [II-48, (S)-2-(4,5-dibromofuran-2-carboxamido)-N1-(1-(2-(2-adamantylamino)-2-oxoethyl)-2-oxo-1,2-dihydropyridin-3-yl)-N6-methyl-5-oxohexanediamide] | < 40 | 1 to 10 | 3 to 5
CNC(=O)C(=O)CC[C@H](NC(=O)c1cc(Cl)c(Cl)s1)C(=O)Nc1cccn(CC(=O)NC2C3CC4CC(C3)CC2C4)c1=O (stereo partly drawn) [II-49, (S)-2-(4,5-dichlorothiophene-2-carboxamido)-N1-(1-(2-(2-adamantylamino)-2-oxoethyl)-2-oxo-1,2-dihydropyridin-3-yl)-N6-methyl-5-oxohexanediamide] | < 40 | 1 to 10 | 3 to 5
CNC(=O)C(=O)CC[C@H](NC(=O)c1cnnn1C)C(=O)Nc1cccn(CC(=O)NC2C3CC4CC(C3)CC2C4)c1=O (stereo partly drawn) [II-51, (S)-N1-(1-(2-(2-adamantylamino)-2-oxoethyl)-2-oxo-1,2-dihydropyridin-3-yl)-N6-methyl-2-(1-methyl-1H-1,2,3-triazole-5-carboxamido)-5-oxohexanediamide] | 40 to 400 | 1 to 10 | < 1
CNC(=O)C(=O)CC[C@H](NC(=O)c1nn[nH]n1)C(=O)Nc1cccn(CC(=O)NC2C3CC4CC(C3)CC2C4)c1=O (stereo partly drawn) [II-52, (S)-N1-(1-(2-(2-adamantylamino)-2-oxoethyl)-2-oxo-1,2-dihydropyridin-3-yl)-N6-methyl-5-oxo-2-(2H-tetrazole-5-carboxamido)hexanediamide] | 400 to 2500 | < 1 | < 1
CNC(=O)C(=O)CC[C@H](NC(=O)c1cnccn1)C(=O)Nc1cccn(CC(=O)NC2C3CC4CC(C3)CC2C4)c1=O (stereo partly drawn) [II-53, (S)-N1-(1-(2-(2-adamantylamino)-2-oxoethyl)-2-oxo-1,2-dihydropyridin-3-yl)-N6-methyl-5-oxo-2-(pyrazine-2-carboxamido)hexanediamide] | 40 to 400 | < 1 | 1 to 3
CNC(=O)C(=O)CC[C@H](NC(=O)C1CN2CCC1CC2)C(=O)Nc1cccn(CC(=O)NC2C3CC4CC(C3)CC2C4)c1=O (stereo partly drawn) [II-61, (S)-N1-(1-(2-(2-adamantylamino)-2-oxoethyl)-2-oxo-1,2-dihydropyridin-3-yl)-N6-methyl-5-oxo-2-(quinuclidine-3-carboxamido)hexanediamide] | 40 to 400 | < 1 | 1 to 3
CNC(=O)C(=O)CC[C@H](NC(=O)c1cc(C(=O)OC)cc([N+](=O)[O-])c1)C(=O)Nc1cccn(CC(=O)NC2C3CC4CC(C3)CC2C4)c1=O (stereo partly drawn) [II-62, (S)-methyl 3-(1-(1-(2-(2-adamantylamino)-2-oxoethyl)-2-oxo-1,2-dihydropyridin-3-ylamino)-6-(methylamino)-1,5,6-trioxohexan-2-ylcarbamoyl)-5-nitrobenzoate] | < 40 | 1 to 10 | 1 to 3
